Cc1ccc2c(c1)C(=O)OC2=O
solubility (mole fraction)
Conditions | 278.15 K | 283.15 K | 288.15 K | 293.15 K | 298.15 K | 303.15 K | 308.15 K | 313.15 K | 318.15 K
in acetone | 0.127 | 0.15 | 0.176 | 0.206 | 0.236 | 0.272 | 0.312 | 0.356 | 0.406
in acetonitrile | 0.101 | 0.118 | 0.141 | 0.167 | 0.193 | 0.224 | 0.258 | 0.3 | 0.343
in cyclohexane | – | 0.00152 | 0.0019 | 0.00245 | 0.0031 | 0.00396 | 0.00489 | 0.00591 | 0.00729
in methyl acetate | 0.179 | 0.206 | 0.236 | 0.263 | 0.289 | 0.328 | 0.363 | 0.41 | 0.449
in n-butyl acetate | 0.0226 | 0.0267 | 0.0312 | 0.0397 | 0.0473 | 0.0586 | 0.0716 | 0.0858 | 0.102
in n-heptane | 0.00107 | 0.00142 | 0.00178 | 0.00227 | 0.00284 | 0.00355 | 0.00444 | 0.00556 | 0.007
in tetrachloromethane | 0.00751 | 0.00871 | 0.0105 | 0.0127 | 0.0157 | 0.0189 | 0.0222 | 0.0265 | 0.0321
in toluene | 0.0651 | 0.0781 | 0.0945 | 0.11 | 0.133 | 0.158 | 0.188 | 0.225 | 0.273

— BigSolDB 2.1
